Data taken from ChEMBL document CHEMBL1143962, “Protective effect of irisolidone, a metabolite of kakkalide, against hydrogen peroxide induced cell damage via antioxidant effect” (2008).
Activity calls are given as the source filed them. The calls are words filed in the database; no cut-off is given here.

What was measured:
V79-4 [1] = test: ROS scavenging activity in chinese hamster V79-4 cells at 50 ug/mL after 30 mins by DCF-DA method; type: functional, Cricetulus griseus
[2] = DPPH radical scavenging activity at 50 ug/ml after 30 mins; type: functional
[3] = DPPH radical scavenging activity at 1 ug/ml after 30 mins; type: functional
[4] = DPPH radical scavenging activity at 10 ug/ml after 30 mins; type: functional
V79-4 [5] = test: ROS scavenging activity in chinese hamster V79-4 cells at 10 ug/mL after 30 mins by DCF-DA method; type: functional, Cricetulus griseus
V79-4 [6] = test: ROS scavenging activity in chinese hamster V79-4 cells at 1 ug/mL after 30 mins by DCF-DA method; type: functional, Cricetulus griseus
[7] = biological target: Transcription factor Jun (Homo sapiens) (UniProt P05412); test: Increase in transcriptional activity of AP1 transfected in V79-4 cells by luciferase assay; type: cell-based
V79-4 [8] = test: Protective effect on hydrogen peroxide-induced cell damage in chinese hamster V79-4 cells assessed as decrease in DNA fragmentation level at 50 ug/ml by ELISA; type: functional, cell-based; details: Cricetulus griseus
V79-4 [9] = test: Decrease in hydrogen peroxide-induced 8-OHdG in chinese hamster V79-4 cells at 1 ug/mL; type: functional, Cricetulus griseus
V79-4 [10] = test: Inhibition of hydrogen peroxide-induced lipid peroxidation in chinese hamster V79-4 cells assessed as TBARS per mg of protein at 50 ug/mL; type: functional, Cricetulus griseus
V79-4 [11] = test: Decrease in hydrogen peroxide-induced 8-OHdG in chinese hamster V79-4 cells at 50 ug/mL; type: functional, Cricetulus griseus
V79-4 [12] = test: Protection against hydrogen peroxide-induced apoptosis in chinese hamster V79-4 cells assessed as cell survival by MTT assay; type: functional, Cricetulus griseus
V79-4 [13] = test: Activation of ERK in chinese hamster V79-4 cells assessed as phosphorylated ERK within 6 hrs; type: cell-based; details: Cricetulus griseus
V79-4 [14] = test: Inhibition of hydrogen peroxide-induced lipid peroxidation in chinese hamster V79-4 cells assessed as TBARS per mg of protein at 10 ug/mL; type: functional, Cricetulus griseus
V79-4 [15] = test: Protective effect on hydrogen peroxide-induced damage in chinese hamster V79-4 cells in presence of U0126 by MTT assay; type: functional, cell-based; details: Cricetulus griseus
V79-4 [16] = test: Decrease in hydrogen peroxide-induced 8-OHdG in chinese hamster V79-4 cells at 10 ug/mL; type: functional, Cricetulus griseus
V79-4 [17] = test: Effect on hydrogen peroxide-induced DNA damage in chinese hamster V79-4 cells assessed as decrease in phospho H2A.X expression; type: functional, cell-based; details: Cricetulus griseus
V79-4 [18] = test: Protective effect on hydrogen peroxide-induced cell damage in chinese hamster V79-4 cells assessed as decrease in apoptotic sub-G1 DNA content at 50 ug/ml by flow cytometry; type: functional, Cricetulus griseus; set-up: scale not given: the % may be the effect or the level left
V79-4 [19] = test: Inhibition of hydrogen peroxide-induced lipid peroxidation in chinese hamster V79-4 cells assessed as TBARS per mg of protein at 1 ug/mL; type: functional, Cricetulus griseus

Sequence of Transcription factor Jun (Homo sapiens) (P05412 whole entry, the tested form may be a part): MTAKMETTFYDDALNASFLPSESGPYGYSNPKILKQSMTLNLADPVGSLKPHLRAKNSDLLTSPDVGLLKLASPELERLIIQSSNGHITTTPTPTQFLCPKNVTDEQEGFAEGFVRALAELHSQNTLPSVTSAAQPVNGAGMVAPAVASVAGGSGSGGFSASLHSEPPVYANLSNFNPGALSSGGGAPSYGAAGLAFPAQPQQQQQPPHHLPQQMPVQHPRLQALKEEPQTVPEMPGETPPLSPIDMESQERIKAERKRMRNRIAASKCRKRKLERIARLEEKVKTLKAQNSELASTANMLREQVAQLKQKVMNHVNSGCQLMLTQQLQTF

Structure (SMILES)	Activity (V79-4 [1])	Activity [2]	Activity [3]	Activity [4]	Activity (V79-4 [5])	Activity (V79-4 [6])	Activity [7]	Activity (V79-4 [8])	Activity (V79-4 [9])	Activity (V79-4 [10])	Activity (V79-4 [11])	Survival (V79-4 [12])	Activity (V79-4 [13])	Activity (V79-4 [14])	Activity (V79-4 [15])	Activity (V79-4 [16])	Activity (V79-4 [17])	Activity (V79-4 [18])	Activity (V79-4 [19])
COc1ccc(-c2coc3cc(O[C@@H]4O[C@H](COC5OC[C@@H](O)[C@H](O)[C@H]5O)[C@@H](O)[C@H](O)[C@H]4O)c(OC)c(O)c3c2=O)cc1 (stereo not given in full) [KAKKALIDE]	51%	28%	8%	12%	37%	29%													
COc1ccc(-c2coc3cc(O)c(OC)c(O)c3c2=O)cc1 [IRISOLIDONE]	66%	44%	10%	19%	58%	41%	Active	Active	9280 pg/mL	0.8 µmol	6409 pg/mL	48%	Active	1 µmol	inactive	7956 pg/mL	Active	36%	1.2 µmol
